Experimental data from patent US20050197350A1, “Novel quinoline, tetrahydroquinazoline, and pyrimidine derivatives and methods of treatment related to the use thereof” (TAISHO PHARMACEUTICAL CO., LTD., priority 2003, published 2005).

Tested on: MCH receptors
Assay: MCH receptor activity class (method not given)
Conditions: class by percent of control at 10^-7 M or IC50

Row | SMILES | class
1 | Cc1ccc(CNC[C@H]2CC[C@@H](Nc3nc4c(c(N(C)C)n3)CCCC4)CC2)cc1 [compound 1428] | 3 (Class 3 The value of percent of control at 10^−7 M was more than 60% or the value of IC50 was more than 200 nM.)
2 | CN(C)c1nc(N[C@H]2CC[C@@H](CNCc3cc(Cl)cc(Cl)c3)CC2)nc2c1CCCC2 [compound 1429] | 3 (Class 3 The value of percent of control at 10^−7 M was more than 60% or the value of IC50 was more than 200 nM.)
3 | COc1cc(CNC[C@H]2CC[C@@H](Nc3nc4c(c(N(C)C)n3)CCCC4)CC2)cc2c1OCO2 [compound 1430] | 2 (Class 2: The value of percent of control at 10^−7 M was from 40% to 60% or the value of IC′50 was from 50 nM to 200 nM.)
4 | COc1cc(CNC[C@H]2CC[C@@H](Nc3nc4c(c(N(C)C)n3)CCCC4)CC2)cc(Br)c1OC [compound 1431] | 3 (Class 3 The value of percent of control at 10^−7 M was more than 60% or the value of IC50 was more than 200 nM.)
5 | COc1ccc(CNC[C@H]2CC[C@@H](Nc3nc4c(c(N(C)C)n3)CCCC4)CC2)cc1C [compound 1432] | 3 (Class 3 The value of percent of control at 10^−7 M was more than 60% or the value of IC50 was more than 200 nM.)
6 | COc1cc(Br)c(CNC[C@H]2CC[C@@H](Nc3nc4c(c(N(C)C)n3)CCCC4)CC2)cc1OC [compound 1433] | 3 (Class 3 The value of percent of control at 10^−7 M was more than 60% or the value of IC50 was more than 200 nM.)
7 | Cc1oc(-c2ccccc2)cc1CNC[C@H]1CC[C@@H](Nc2nc3c(c(N(C)C)n2)CCCC3)CC1 [compound 1434] | 3 (Class 3 The value of percent of control at 10^−7 M was more than 60% or the value of IC50 was more than 200 nM.)
8 | COc1ccc(CNC[C@H]2CC[C@@H](Nc3nc4c(c(N(C)C)n3)CCCC4)CC2)cc1OC [compound 1435] | 3 (Class 3 The value of percent of control at 10^−7 M was more than 60% or the value of IC50 was more than 200 nM.)
9 | Cc1cc(CNC[C@H]2CC[C@@H](Nc3nc4c(c(N(C)C)n3)CCCC4)CC2)ccc1O [compound 1436] | 2 (Class 2: The value of percent of control at 10^−7 M was from 40% to 60% or the value of IC′50 was from 50 nM to 200 nM.)
10 | COc1cc(C)c(CNC[C@H]2CC[C@@H](Nc3nc4c(c(N(C)C)n3)CCCC4)CC2)cc1C [compound 1437] | 2 (Class 2: The value of percent of control at 10^−7 M was from 40% to 60% or the value of IC′50 was from 50 nM to 200 nM.)
11 | COc1cccc(CNC[C@H]2CC[C@@H](Nc3nc4c(c(N(C)C)n3)CCCC4)CC2)c1O [compound 1438] | 3 (Class 3 The value of percent of control at 10^−7 M was more than 60% or the value of IC50 was more than 200 nM.)
12 | CN(C)c1nc(N[C@H]2CC[C@@H](CNCc3cc(C(F)(F)F)cc(Cl)c3F)CC2)nc2c1CCCC2 [compound 1439] | 3 (Class 3 The value of percent of control at 10^−7 M was more than 60% or the value of IC50 was more than 200 nM.)
13 | CN(C)c1nc(N[C@H]2CC[C@@H](CNCc3cc(F)cc(C(F)(F)F)c3)CC2)nc2c1CCCC2 [compound 1440] | 3 (Class 3 The value of percent of control at 10^−7 M was more than 60% or the value of IC50 was more than 200 nM.)
14 | COc1cc(CNC[C@H]2CC[C@@H](Nc3nc4c(c(N(C)C)n3)CCCC4)CC2)cc(F)c1O [compound 1441] | 2 (Class 2: The value of percent of control at 10^−7 M was from 40% to 60% or the value of IC′50 was from 50 nM to 200 nM.)
15 | COc1cc(F)c(CNC[C@H]2CC[C@@H](Nc3nc4c(c(N(C)C)n3)CCCC4)CC2)cc1OC [compound 1442] | 3 (Class 3 The value of percent of control at 10^−7 M was more than 60% or the value of IC50 was more than 200 nM.)
16 | CCc1ccccc1CNC[C@H]1CC[C@@H](Nc2nc3c(c(N(C)C)n2)CCCC3)CC1 [compound 1443] | 3 (Class 3 The value of percent of control at 10^−7 M was more than 60% or the value of IC50 was more than 200 nM.)
17 | CN(C)c1nc(N[C@H]2CC[C@@H](CNCc3ccc(N(C)CCC#N)cc3)CC2)nc2c1CCCC2 [compound 1444] | 3 (Class 3 The value of percent of control at 10^−7 M was more than 60% or the value of IC50 was more than 200 nM.)
18 | CN(C)c1nc(N[C@H]2CC[C@@H](CNCc3ccc(OCc4ccc(Br)cc4)cc3)CC2)nc2c1CCCC2 [compound 1445] | 3 (Class 3 The value of percent of control at 10^−7 M was more than 60% or the value of IC50 was more than 200 nM.)
19 | CCOc1c(Br)cc(Br)cc1CNC[C@H]1CC[C@@H](Nc2nc3c(c(N(C)C)n2)CCCC3)CC1 [compound 1446] | 3 (Class 3 The value of percent of control at 10^−7 M was more than 60% or the value of IC50 was more than 200 nM.)
20 | CN(C)c1cc(N[C@H]2CC[C@@H](NCCc3ccc(Br)cc3)CC2)nc2ccccc12 [compound 1447] | 3 (Class 3 The value of percent of control at 10^−7 M was more than 60% or the value of IC50 was more than 200 nM.)
21 | CN(C)c1cc(N[C@H]2CC[C@@H](NCCOc3ccccc3Cl)CC2)nc2ccccc12 [compound 1449] | 3 (Class 3 The value of percent of control at 10^−7 M was more than 60% or the value of IC50 was more than 200 nM.)
22 | Cc1c(C)c(C)c(CNC2CCC(Nc3cc(N(C)C)c4ccccc4n3)CC2)c(C)c1C (stereo not shown) [compound 1451] | 3 (Class 3 The value of percent of control at 10^−7 M was more than 60% or the value of IC50 was more than 200 nM.)

Row | SMILES | class
23 | CCOc1cccc(CN[C@H]2CC[C@@H](Nc3cc(N(C)C)c4ccccc4n3)CC2)c1 [compound 1452] | 3 (Class 3 The value of percent of control at 10^−7 M was more than 60% or the value of IC50 was more than 200 nM.)
24 | CN(C)c1cc(N[C@H]2CC[C@@H](NC[C@@H](COCc3ccccc3)OCc3ccccc3)CC2)nc2ccccc12 [compound 1453] | 3 (Class 3 The value of percent of control at 10^−7 M was more than 60% or the value of IC50 was more than 200 nM.)
25 | COc1cc2ccccc2cc1CN[C@H]1CC[C@@H](Nc2cc(N(C)C)c3ccccc3n2)CC1 [compound 1454] | 3 (Class 3 The value of percent of control at 10^−7 M was more than 60% or the value of IC50 was more than 200 nM.)
26 | CN(C)c1cc(N[C@H]2CC[C@@H](NCCN(CCC#N)c3ccccc3)CC2)nc2ccccc12 [compound 1455] | 2 (Class 2: The value of percent of control at 10^−7 M was from 40% to 60% or the value of IC′50 was from 50 nM to 200 nM.)
27 | Cc1ccc(S(=O)(=O)N[C@H](CN[C@H]2CC[C@@H](Nc3cc(N(C)C)c4ccccc4n3)CC2)Cc2ccccc2)cc1 [compound 1456] | 3 (Class 3 The value of percent of control at 10^−7 M was more than 60% or the value of IC50 was more than 200 nM.)
28 | CN(C)c1cc(NC2CCC(NCC3CCCCC3C(O)c3ccccc3)CC2)nc2ccccc12 (stereo not shown) [compound 1457] | 3 (Class 3 The value of percent of control at 10^−7 M was more than 60% or the value of IC50 was more than 200 nM.)
29 | COc1cc(CCN[C@H]2CC[C@@H](Nc3cc(N(C)C)c4ccccc4n3)CC2)cc(OC)c1 [compound 1458] | 3 (Class 3 The value of percent of control at 10^−7 M was more than 60% or the value of IC50 was more than 200 nM.)
30 | CN(C)c1cc(N[C@H]2CC[C@@H](NCCc3c(-c4ccccc4)[nH]c4ccccc34)CC2)nc2ccccc12 [compound 1459] | 2 (Class 2: The value of percent of control at 10^−7 M was from 40% to 60% or the value of IC′50 was from 50 nM to 200 nM.)
31 | CN(C)c1cc(N[C@H]2CC[C@@H](NCC(c3ccc(Cl)cc3)c3ccc(Cl)cc3)CC2)nc2ccccc12 [compound 1460] | 3 (Class 3 The value of percent of control at 10^−7 M was more than 60% or the value of IC50 was more than 200 nM.)
32 | C[C@H](CN[C@H]1CC[C@@H](Nc2cc(N(C)C)c3ccccc3n2)CC1)c1cccc(C(O)c2ccccc2)c1 (stereo partly shown) [compound 1461] | 3 (Class 3 The value of percent of control at 10^−7 M was more than 60% or the value of IC50 was more than 200 nM.)
33 | CN(C)c1cc(N[C@H]2CC[C@@H](NCC3CN(C(c4ccccc4)c4ccccc4)C3)CC2)nc2ccccc12 [compound 1462] | 1 (Class 1: The value of percent of control at 10^−7 M was less than 40% or the value of IC50 was less than 50 nM.)
34 | CN(C)c1cc(N[C@H]2CC[C@@H](CNCCc3ccc(Br)cc3)CC2)nc2ccccc12 [compound 1463] | 3 (Class 3 The value of percent of control at 10^−7 M was more than 60% or the value of IC50 was more than 200 nM.)
35 | COc1ccc(CCCCNC[C@H]2CC[C@@H](Nc3cc(N(C)C)c4ccccc4n3)CC2)cc1 [compound 1464] | 3 (Class 3 The value of percent of control at 10^−7 M was more than 60% or the value of IC50 was more than 200 nM.)
36 | CN(C)c1cc(N[C@H]2CC[C@@H](CNCCCCCCc3ccccc3)CC2)nc2ccccc12 [compound 1465] | 3 (Class 3 The value of percent of control at 10^−7 M was more than 60% or the value of IC50 was more than 200 nM.)
37 | Cc1cc(C)c(CCNC[C@H]2CC[C@@H](Nc3cc(N(C)C)c4ccccc4n3)CC2)c(C)c1 [compound 1466] | 3 (Class 3 The value of percent of control at 10^−7 M was more than 60% or the value of IC50 was more than 200 nM.)
38 | CN(C)c1cc(N[C@H]2CC[C@@H](CNCCCCCCCCc3ccccc3)CC2)nc2ccccc12 [compound 1467] | 3 (Class 3 The value of percent of control at 10^−7 M was more than 60% or the value of IC50 was more than 200 nM.)
39 | CN(C)c1cc(N[C@H]2CC[C@@H](CNCCc3ccc(C(C)(C)C)cc3)CC2)nc2ccccc12 [compound 1468] | 3 (Class 3 The value of percent of control at 10^−7 M was more than 60% or the value of IC50 was more than 200 nM.)
40 | CN(C)c1cc(N[C@H]2CC[C@@H](CNCCCC#Cc3ccccc3)CC2)nc2ccccc12 [compound 1469] | 3 (Class 3 The value of percent of control at 10^−7 M was more than 60% or the value of IC50 was more than 200 nM.)
41 | COc1ccccc1CCNC[C@H]1CC[C@@H](Nc2cc(N(C)C)c3ccccc3n2)CC1 [compound 1470] | 3 (Class 3 The value of percent of control at 10^−7 M was more than 60% or the value of IC50 was more than 200 nM.)
42 | CN(C)c1cc(N[C@H]2CC[C@@H](CNCCCOc3ccccc3)CC2)nc2ccccc12 [compound 1471] | 3 (Class 3 The value of percent of control at 10^−7 M was more than 60% or the value of IC50 was more than 200 nM.)
43 | CN(C)c1cc(N[C@H]2CC[C@@H](CNCc3c(F)c(F)cc(F)c3F)CC2)nc2ccccc12 [compound 1472] | 3 (Class 3 The value of percent of control at 10^−7 M was more than 60% or the value of IC50 was more than 200 nM.)
